Data: PubChem BioAssay (NCI)
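GI50 is the concentration that inhibits growth by half. TGI denotes the concentration required for complete inhibition of growth.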

Key:
Experiment in all cases: growth of human tumour cells (NCI), 384-well format
K-562 leukemia = test system: K-562 leukemia
T-47D breast = test system: T-47D breast
M14 melanoma = test system: M14 melanoma
LOX IMVI melanoma = test system: LOX IMVI melanoma
HT29 colon = test system: HT29 colon
NCI-H522 lung = test system: NCI-H522 lung
SF-268 CNS = test system: SF-268 CNS
HS 578T breast = test system: HS 578T breast
OVCAR-5 ovarian = test system: OVCAR-5 ovarian
RXF 393 renal = test system: RXF 393 renal
SK-OV-3 ovarian = test system: SK-OV-3 ovarian
HOP-92 NSCLC = test system: HOP-92 NSCLC
SNB-75 CNS = test system: SNB-75 CNS
TK-10 renal = test system: TK-10 renal
IGROV1 ovarian = test system: IGROV1 ovarian
786-0 renal = test system: 786-0 renal
KM12 colon = test system: KM12 colon
MALME-3M melanoma = test system: MALME-3M melanoma
MOLT-4 leukemia = test system: MOLT-4 leukemia
SK-MEL-2 melanoma = test system: SK-MEL-2 melanoma
UACC-62 melanoma = test system: UACC-62 melanoma
U251 glioblastoma = test system: U251 glioblastoma
SK-MEL-5 melanoma = test system: SK-MEL-5 melanoma
HCT-116 colon = test system: HCT-116 colon
BT-549 breast = test system: BT-549 breast
HCC-2998 colon = test system: HCC-2998 colon
MDA-MB-435 melanoma = test system: MDA-MB-435 melanoma
EKVX NSCLC = test system: EKVX NSCLC
A549 NSCLC = test system: A549 NSCLC
MDA-MB-231 breast = test system: MDA-MB-231 breast
NCI-H23 lung = test system: NCI-H23 lung
A498 renal = test system: A498 renal
UACC-257 melanoma = test system: UACC-257 melanoma
HL-60(TB) leukemia = test system: HL-60(TB) leukemia
SNB-19 CNS = test system: SNB-19 CNS
OVCAR-3 ovarian = test system: OVCAR-3 ovarian
SK-MEL-28 melanoma = test system: SK-MEL-28 melanoma
NCI-H460 NSCLC = test system: NCI-H460 NSCLC
UO-31 renal = test system: UO-31 renal
NCI-H226 lung = test system: NCI-H226 lung
DU-145 prostate = test system: DU-145 prostate
NCI-H322M lung = test system: NCI-H322M lung
PC-3 prostate = test system: PC-3 prostate
HCT-15 colon = test system: HCT-15 colon
OVCAR-4 ovarian = test system: OVCAR-4 ovarian
COLO 205 colon = test system: COLO 205 colon
ACHN renal = test system: ACHN renal
CAKI-1 renal = test system: CAKI-1 renal
HOP-62 NSCLC = test system: HOP-62 NSCLC
SW-620 colon = test system: SW-620 colon
SF-539 CNS = test system: SF-539 CNS
SN12C renal = test system: SN12C renal
NCI/ADR-RES ovarian = test system: NCI/ADR-RES ovarian
MCF7 breast = test system: MCF7 breast
RPMI-8226 leukemia = test system: RPMI-8226 leukemia
SF-295 CNS = test system: SF-295 CNS

CO[C@@H](C(=O)N1Cc2[nH]nc(NC(=O)c3ccc(N4CCN(C)CC4)cc3)c2C1)c1ccccc1
GI50 (K-562 leukemia): 0.0326 µM
TGI (K-562 leukemia): 0.167 µM
GI50 (T-47D breast): 9.18 µM
TGI (T-47D breast): 28 µM
GI50 (M14 melanoma): 9.89 µM
TGI (M14 melanoma): 26.3 µM
GI50 (LOX IMVI melanoma): 0.33 µM
TGI (LOX IMVI melanoma): 1.69 µM
GI50 (HT29 colon): 4.96 µM
TGI (HT29 colon): > 100 µM
GI50 (NCI-H522 lung): 0.0346 µM
TGI (NCI-H522 lung): 0.561 µM
GI50 (SF-268 CNS): 1.02 µM
TGI (SF-268 CNS): 2.69 µM
GI50 (HS 578T breast): 1.1 µM
TGI (HS 578T breast): 2.44 µM
GI50 (OVCAR-5 ovarian): 1.7 µM
TGI (OVCAR-5 ovarian): 9.22 µM
GI50 (RXF 393 renal): 0.334 µM
TGI (RXF 393 renal): 2.04 µM
GI50 (SK-OV-3 ovarian): 0.899 µM
TGI (SK-OV-3 ovarian): 12.5 µM
TGI (HOP-92 NSCLC): 2.8 µM
GI50 (SNB-75 CNS): 0.769 µM
TGI (SNB-75 CNS): 2.09 µM
GI50 (TK-10 renal): 1.59 µM
TGI (TK-10 renal): 17.8 µM
GI50 (IGROV1 ovarian): 0.547 µM
TGI (IGROV1 ovarian): 2.79 µM
GI50 ([…]-0 renal): 2.53 µM
TGI (786-0 renal): 15.1 µM
GI50 (KM12 colon): 0.175 µM
TGI (KM12 colon): 10.9 µM
GI50 (MALME-3M melanoma): 0.642 µM
TGI (MALME-3M melanoma): 15.2 µM
GI50 (MOLT-4 leukemia): 0.0189 µM
TGI (MOLT-4 leukemia): 0.0445 µM
GI50 (SK-MEL-2 melanoma): 15.5 µM
TGI (SK-MEL-2 melanoma): 29.1 µM
GI50 (UACC-62 melanoma): 0.561 µM
TGI (UACC-62 melanoma): 20.1 µM
GI50 (U251 glioblastoma): 1.71 µM
TGI (U251 glioblastoma): 16.9 µM
GI50 (SK-MEL-5 melanoma): 11.2 µM
TGI (SK-MEL-5 melanoma): 24.6 µM
GI50 (HCT-116 colon): 0.12 µM
TGI (HCT-116 colon): 25.2 µM
GI50 (BT-549 breast): 0.27 µM
TGI (BT-549 breast): 1.47 µM
GI50 (HCC-2998 colon): 12.7 µM
TGI (HCC-2998 colon): 30.3 µM
GI50 (MDA-MB-435 melanoma): 16.9 µM
TGI (MDA-MB-435 melanoma): 32.9 µM
GI50 (EKVX NSCLC): 1.05 µM
TGI (EKVX NSCLC): 15.8 µM
GI50 (A549 NSCLC): 0.442 µM
TGI (A549 NSCLC): 15.5 µM
GI50 (MDA-MB-231 breast): 2.36 µM
TGI (MDA-MB-231 breast): > 100 µM
GI50 (NCI-H23 lung): 0.822 µM
TGI (NCI-H23 lung): 12.9 µM
GI50 (A498 renal): 1.23 µM
TGI (A498 renal): 25.6 µM
GI50 (UACC-257 melanoma): 13.1 µM
TGI (UACC-257 melanoma): 26.4 µM
GI50 (HL-60(TB) leukemia): 0.0466 µM
TGI (HL-60(TB) leukemia): 1.51 µM
GI50 (SNB-19 CNS): 2.29 µM
TGI (SNB-19 CNS): > 100 µM
GI50 (OVCAR-3 ovarian): 0.113 µM
TGI (OVCAR-3 ovarian): 2.64 µM
GI50 (SK-MEL-28 melanoma): 2.67 µM
TGI (SK-MEL-28 melanoma): 18.7 µM
GI50 (NCI-H460 NSCLC): 0.0885 µM
TGI (NCI-H460 NSCLC): 1.26 µM
GI50 (UO-31 renal): 11 µM
TGI (UO-31 renal): 25.4 µM
GI50 (NCI-H226 lung): 0.623 µM
TGI (NCI-H226 lung): 4.91 µM
GI50 (DU-145 prostate): 0.451 µM
TGI (DU-145 prostate): 24.4 µM
GI50 (NCI-H322M lung): 3.17 µM
TGI (NCI-H322M lung): 16.7 µM
GI50 (PC-3 prostate): 1.63 µM
TGI (PC-3 prostate): 48.6 µM
GI50 (HCT-15 colon): 14.7 µM
TGI (HCT-15 colon): > 100 µM
GI50 (OVCAR-4 ovarian): 0.566 µM
TGI (OVCAR-4 ovarian): 23.9 µM
GI50 (COLO 205 colon): 0.0244 µM
TGI (COLO 205 colon): 0.0639 µM
GI50 (ACHN renal): 2.41 µM
TGI (ACHN renal): 18.6 µM
GI50 (CAKI-1 renal): 1.21 µM
TGI (CAKI-1 renal): 9.85 µM
GI50 (HOP-62 NSCLC): 0.676 µM
TGI (HOP-62 NSCLC): 10.5 µM
GI50 (SW-620 colon): 0.848 µM
TGI (SW-620 colon): 13 µM
GI50 (SF-539 CNS): 0.237 µM
TGI (SF-539 CNS): 1.42 µM
GI50 (SN12C renal): 0.737 µM
TGI (SN12C renal): 3.53 µM
GI50 (NCI/ADR-RES ovarian): > 100 µM
TGI (NCI/ADR-RES ovarian): > 100 µM
GI50 (MCF7 breast): 0.0371 µM
TGI (MCF7 breast): 13.7 µM
GI50 (RPMI-8226 leukemia): 0.327 µM
TGI (RPMI-8226 leukemia): 1.46 µM
GI50 (SF-295 CNS): 1.7 µM
TGI (SF-295 CNS): 54.4 µM
